Assay results from PubChem BioAssay AID248 (DTP/NCI, 2004).
Values joined by “and” are separate entries in the source; they are usually repeats but may differ in a detail not shown here. Identical values can stand only once. Inconclusive results and toxic doses are left out. No stated cut-off is given here; in the data, active means T/C of 150% or more; inactive means T/C below 125%.

Tested on: L1210 leukemia ip in BDF1 mice, survival T/C
Assay: NCI In Vivo Anticancer Drug Screen. Data for tumor model L1210 Leukemia (intraperitoneal) in B6D2F1 (BDF1) mice
Details: endpoint: mean survival time, higher = longer survival
In short: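 Transplantable tumor model; survival measured in treated vs vehicle control mice. Value = treated/control.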

[1] = dose: 100.0 mg/kg/injection, schedule: Q01DX001 (ip), vehicle: Klucel (hydroxypropylcellulose) (HPC)
[2] = dose: 200.0 mg/kg/injection, schedule: Q01DX001 (ip), vehicle: Klucel (hydroxypropylcellulose) (HPC)
[3] = dose: 400.0 mg/kg/injection, schedule: Q01DX001 (ip), vehicle: Klucel (hydroxypropylcellulose) (HPC)
[4] = dose: 100.0 mg/kg/injection, schedule: Q01DX001 (ip), vehicle: carboxymethylcellulose (CMC)
[5] = dose: 200.0 mg/kg/injection, schedule: Q01DX001 (ip), vehicle: carboxymethylcellulose (CMC)
[6] = dose: 50.0 mg/kg/injection, schedule: Q01DX009 (ip), vehicle: saline
[7] = dose: 100.0 mg/kg/injection, schedule: Q01DX009 (ip), vehicle: saline
[8] = dose: 200.0 mg/kg/injection, schedule: Q01DX009 (ip), vehicle: saline
[9] = dose: 100.0 mg/kg/injection, schedule: Q04DX003 (ip), vehicle: Klucel (hydroxypropylcellulose) (HPC)
[10] = dose: 200.0 mg/kg/injection, schedule: Q04DX003 (ip), vehicle: Klucel (hydroxypropylcellulose) (HPC)
[11] = dose: 400.0 mg/kg/injection, schedule: Q04DX003 (ip), vehicle: Klucel (hydroxypropylcellulose) (HPC)

Measured: T/C

CNc1nnnn1-c1ccccc1C
inactive: [1] 93 % of control | [2] 98 % of control | [3] 105 % of control

CSc1cccc(NC(=O)Nc2ccc(Cl)cc2)c1
inactive: dose: 100.0 mg/kg/injection, schedule: Q04DX002 (ip), vehicle: saline with Tween-80 104 % of control | dose: 200.0 mg/kg/injection, schedule: Q04DX002 (ip), vehicle: saline with Tween-80 93 % of control | dose: 400.0 mg/kg/injection, schedule: Q04DX002 (ip), vehicle: saline with Tween-80 89 % of control

N#CC1(Nc2ccc(-c3ccc(Cl)cc3)cc2)CCCC1
inactive: dose: 50.0 mg/kg/injection, schedule: Q01DX001 (ip), vehicle: carboxymethylcellulose (CMC) 91 % of control | [4] 91 % of control | [5] 87 % of control

Cc1ccc2c(c1)P(O)(=S)c1cc(F)ccc1O2 (configuration not stated)
inactive: [6] 113 % of control | [7] 103 % of control | [8] 110 % of control

Nc1ccc(N=Nc2ccc(C(=O)Nc3ccc4cc(S(=O)(=O)O)ccc4c3)cc2)c(N)c1N=Nc1ccc(N=Nc2ccc(O)c(C(=O)O)c2)cc1
inactive: dose: 25.0 mg/kg/injection, schedule: Q01DX001 (ip), vehicle: saline 94 % of control | dose: 25.0 mg/kg/injection, schedule: Q01DX009 (ip), vehicle: saline 105 % of control | dose: 25.0 mg/kg/injection, schedule: Q04DX003 (ip), vehicle: saline 109 % of control | dose: 50.0 mg/kg/injection, schedule: Q01DX001 (ip), vehicle: saline 90 % of control | [6] 94 % of control | dose: 50.0 mg/kg/injection, schedule: Q04DX003 (ip), vehicle: saline 95 % of control | dose: 100.0 mg/kg/injection, schedule: Q01DX001 (ip), vehicle: saline 97 % of control | [7] 87 % of control | dose: 100.0 mg/kg/injection, schedule: Q04DX003 (ip), vehicle: saline 102 % of control

O=C(Nc1ccc(Oc2ccc(NC(=O)Nc3cccc(F)c3)cc2)cc1)Nc1cccc(F)c1
inactive: dose: 25.0 mg/kg/injection, schedule: Q01DX009 (ip), vehicle: carboxymethylcellulose (CMC) 89 % of control and 90 % of control | dose: 50.0 mg/kg/injection, schedule: Q01DX009 (ip), vehicle: carboxymethylcellulose (CMC) 86 % of control and 87 % of control | [4] 93 % of control and 94 % of control | dose: 100.0 mg/kg/injection, schedule: Q01DX009 (ip), vehicle: carboxymethylcellulose (CMC) 100 % of control and 106 % of control and 86 % of control | dose: 100.0 mg/kg/injection, schedule: Q04DX002 (ip), vehicle: carboxymethylcellulose (CMC) 97 % of control and 99 % of control | dose: 100.0 mg/kg/injection, schedule: Q04DX003 (ip), vehicle: carboxymethylcellulose (CMC) 94 % of control and 105 % of control | [5] 96 % of control and 105 % of control | dose: 200.0 mg/kg/injection, schedule: Q01DX009 (ip), vehicle: carboxymethylcellulose (CMC) 99 % of control | dose: 200.0 mg/kg/injection, schedule: Q04DX002 (ip), vehicle: carboxymethylcellulose (CMC) 95 % of control and 108 % of control | dose: 200.0 mg/kg/injection, schedule: Q04DX003 (ip), vehicle: carboxymethylcellulose (CMC) 94 % of control and 92 % of control | dose: 400.0 mg/kg/injection, schedule: Q01DX001 (ip), vehicle: carboxymethylcellulose (CMC) 96 % of control and 91 % of control | dose: 400.0 mg/kg/injection, schedule: Q01DX009 (ip), vehicle: carboxymethylcellulose (CMC) 93 % of control | dose: 400.0 mg/kg/injection, schedule: Q04DX002 (ip), vehicle: carboxymethylcellulose (CMC) 95 % of control and 89 % of control | dose: 400.0 mg/kg/injection, schedule: Q04DX003 (ip), vehicle: carboxymethylcellulose (CMC) 91 % of control and 92 % of control

COc1ccc([N+](=O)[O-])cc1C(=O)O
inactive: dose: 75.0 mg/kg/injection, schedule: Q01DX001 (ip), vehicle: saline 104 % of control | dose: 75.0 mg/kg/injection, schedule: Q04DX003 (ip), vehicle: acetone 100 % of control | dose: 150.0 mg/kg/injection, schedule: Q01DX001 (ip), vehicle: saline 95 % of control | dose: 150.0 mg/kg/injection, schedule: Q04DX003 (ip), vehicle: acetone 89 % of control | dose: 300.0 mg/kg/injection, schedule: Q01DX001 (ip), vehicle: saline 104 % of control | dose: 300.0 mg/kg/injection, schedule: Q04DX003 (ip), vehicle: acetone 93 % of control

O=C(O)CC(NC(=O)OCc1ccccc1)C(=O)O (configuration not stated)
inactive: dose: 50.0 mg/kg/injection, schedule: Q01DX009 (ip), vehicle: Klucel (hydroxypropylcellulose) (HPC) 95 % of control | dose: 100.0 mg/kg/injection, schedule: Q01DX009 (ip), vehicle: Klucel (hydroxypropylcellulose) (HPC) 92 % of control | [7] 114 % of control | dose: 200.0 mg/kg/injection, schedule: Q01DX009 (ip), vehicle: Klucel (hydroxypropylcellulose) (HPC) 98 % of control | [8] 113 % of control | dose: 400.0 mg/kg/injection, schedule: Q01DX009 (ip), vehicle: saline 107 % of control

CC(=O)N1C=Cc2ccccc2C1C1c2ccccc2C=CN1C(C)=O (configuration not stated)
inactive: [9] 98 % of control | [10] 96 % of control | [11] 93 % of control

CC(=O)Cc1cc(C)nc(/N=C(\N)Nc2ccccc2)n1
inactive: dose: 100.0 mg/kg/injection, schedule: Q04DX002 (ip), vehicle: Klucel (hydroxypropylcellulose) (HPC) 93 % of control | dose: 200.0 mg/kg/injection, schedule: Q04DX002 (ip), vehicle: Klucel (hydroxypropylcellulose) (HPC) 104 % of control

Cc1cc(O)c(O)c(S(=O)(=O)c2ccccc2)c1
inactive: dose: 87.5 mg/kg/injection, schedule: Q01DX009 (ip), vehicle: saline with Tween-80 94 % of control | dose: 175.0 mg/kg/injection, schedule: Q01DX009 (ip), vehicle: saline with Tween-80 96 % of control | dose: 350.0 mg/kg/injection, schedule: Q01DX009 (ip), vehicle: saline with Tween-80 100 % of control

CCCCCCC[As](=O)(O)O
inactive: dose: 6.25 mg/kg/injection, schedule: Q01DX009 (ip), vehicle: Klucel (hydroxypropylcellulose) (HPC) 99 % of control | dose: 12.5 mg/kg/injection, schedule: Q01DX009 (ip), vehicle: Klucel (hydroxypropylcellulose) (HPC) 101 % of control

Cc1cc(C)n(N=C2CCCCC2)c(=O)c1C#N
inactive: [1] 96 % of control | [9] 100 % of control | [2] 105 % of control | [10] 99 % of control | [3] 94 % of control | [11] 89 % of control

CCNC(C)(C)C(S)c1ccc(Cl)s1 (configuration not stated)
inactive: dose: 50.0 mg/kg/injection, schedule: Q01DX009 (ip), vehicle: saline with Tween-80 106 % of control | dose: 100.0 mg/kg/injection, schedule: Q01DX009 (ip), vehicle: saline with Tween-80 114 % of control | dose: 100.0 mg/kg/injection, schedule: Q04DX003 (ip), vehicle: saline with Tween-80 103 % of control | dose: 200.0 mg/kg/injection, schedule: Q04DX003 (ip), vehicle: saline with Tween-80 94 % of control

Cc1cc([N+](=O)[O-])cc(Cl)n1
inactive: [1] 97 % of control | [2] 102 % of control | [3] 100 % of control

Brc1cnc[nH]1
inactive: dose: 25.0 mg/kg/injection, schedule: Q01DX009 (ip), vehicle: water 97 % of control | dose: 50.0 mg/kg/injection, schedule: Q01DX009 (ip), vehicle: water 90 % of control | dose: 100.0 mg/kg/injection, schedule: Q01DX009 (ip), vehicle: water 102 % of control | dose: 100.0 mg/kg/injection, schedule: Q04DX002 (ip), vehicle: saline 100 % of control | dose: 200.0 mg/kg/injection, schedule: Q04DX002 (ip), vehicle: saline 95 % of control | dose: 400.0 mg/kg/injection, schedule: Q01DX009 (ip), vehicle: water 98 % of control | dose: 400.0 mg/kg/injection, schedule: Q04DX002 (ip), vehicle: saline 92 % of control
